The IC50 is the concentration needed to halve the response being measured. Lower therefore signals greater potency in that assay.

This assay has as its target T1, Sirt1 (Homo sapiens, UniProt Q96EB6).
T1 construct: made in house; host or cells: E. coli BL21 Star (DE3)
T1 sequence (Q96EB6 134-747): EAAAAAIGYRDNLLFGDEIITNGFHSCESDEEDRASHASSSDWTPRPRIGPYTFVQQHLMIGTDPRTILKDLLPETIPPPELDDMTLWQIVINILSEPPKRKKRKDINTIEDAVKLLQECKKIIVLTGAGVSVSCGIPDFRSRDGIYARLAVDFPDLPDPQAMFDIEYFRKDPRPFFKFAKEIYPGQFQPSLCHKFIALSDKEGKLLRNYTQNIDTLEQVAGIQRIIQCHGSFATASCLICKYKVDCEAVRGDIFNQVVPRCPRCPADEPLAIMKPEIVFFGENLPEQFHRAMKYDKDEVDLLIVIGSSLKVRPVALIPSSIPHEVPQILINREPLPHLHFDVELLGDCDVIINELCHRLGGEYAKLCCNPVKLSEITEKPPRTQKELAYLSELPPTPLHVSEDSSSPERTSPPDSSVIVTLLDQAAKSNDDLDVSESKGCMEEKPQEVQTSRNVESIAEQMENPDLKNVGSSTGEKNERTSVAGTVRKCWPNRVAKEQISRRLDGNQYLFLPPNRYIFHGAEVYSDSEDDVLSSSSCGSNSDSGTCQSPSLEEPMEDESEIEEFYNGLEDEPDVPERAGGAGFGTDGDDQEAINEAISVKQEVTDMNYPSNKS
Description: Homogeneous ZMAL-based fluorescence assay, Sirt1. The class given is biochemical. The note with it: 4th round. How it is done: Recombinant human Sirt5_37−310 was purchased readily in Tris Buffer [25 mM Tris, 100 mM NaCl, 5 mM DTT, 10% glycerol (v/v)] from Enzo Life Sciences (NY, USA). Human Sirt3_118−395 was expressed and purified as described previously ([54]). For expression of human Sirt1_134−747 and Sirt2_56−356 chemically competent cells of E. coli BL21 Star (DE3) were transformed with the expression vectors pET30S-hSirt1_134−747 or pET30S-hSirt2_56−356. Bacteria were grown at 37°C in 2×YT medium supplemented with 50 μg·mL^−1 of kanamycin to an OD600 of 0.6. Then isopropyl-β-D-1-thiogalactopyranoside (IPTG) was added to a final concentration of 1 mM to induce gene expression. After further cultivation at 20°C for 12 h, the cells were harvested by centrifugation for 15 min at 5,000 g. The cells were resuspended in lysis buffer [100 mM Tris/HCl buffer at pH 8.0, 150 mM NaCl and 10% (v/v) glycerol] and disrupted by ultrasonication (Branson Digital Sonifier 250) at 70% amplitude for 10 min (3 s working, 10 s pause). The crude extract was cleared by centrifugation at 100,000 g for 1 h, and the supernatant was loaded onto a Strep-Tactin Superflow cartridge (5 ml bed volume, IBA Lifescience, Germany). Target proteins were eluted with lysis buffer containing 5 mM D-Desthiobiotin (IBA Lifescience, Germany) and further separated by size-exclusion chromatography (Superdex S200 26/60, GE Healthcare, IL, USA) equilibrated in Tris/HCl buffer (20 mM, 150 mM NaCl, pH 8.0). Pure protein was concentrated by ultrafiltration, flash-frozen in liquid nitrogen and stored at −80°C until further use. Identity as well as purity were verified by SDS-PAGE ([55]) and protein concentration was determined by the bicinchoninic acid (BCA) method, using bovine serum albumin (BSA) as a standard ([56]). Deacetylase activity was confirmed to be NAD^+-dependent and could be inhibited with the physiological sirtuin inhibitor nicotinamide.
All compounds were tested in the trypsin-coupled high-throughput ZMAL-assay in black 96-well plates (OptiPlateTM−96F, black, 96 well, Pinch bar design, PerkinElmer, USA), using ZMAL (Z-Lys(acetyl)-AMC) as a substrate ([57]). Sirt1_134−747, Sirt2_56−356, and Sirt3_118−395 were mixed with 5 μL substrate (10.5 μM final assay concentration, diluted from a […] stock in DMSO) and 3 μL Inhibitor in DMSO at various concentrations or DMSO as a control [final DMSO concentration 5% (v/v)]. The mixture was supplemented with assay buffer (50 mM Tris/HCl, 137 mM NaCl, 2.7 mM KCl, 1 mM MgCL2, pH 8.0) to a total volume of 55 μL. Enzyme concentration was adjusted to get a final conversion of 20–30%. Addition of 5 μL NAD^+ (6 mM in assay buffer, final assay concentration of 500 μM) initiated the catalytic reaction and the plates were incubated at 37°C for 4 h with agitation at 140 rpm. The catalytic reaction was stopped by addition of 60 μL stop solution [50 mM Tris, 100 mM NaCl, 6.7% (V/V) DMSO, 5.5 U/μL trypsin, 8 μM nicotinamide, pH 8.0]. The plate was again incubated at 37°C and 140 rpm for 20 min to release free AMC from the deacetylated substrate by trypsin digestion. Afterwards, fluorescence intensity was measured in a microplate reader (λEx = 390 nm, λEm = 460 nm, BMG POLARstar Optima, BMG Labtech, Germany). An enzyme-free blank control and a 100% conversion control containing AMC instead of ZMAL were measured in addition. Inhibition was calculated in % in relation to a DMSO control after blank signal subtraction and IC50 values were determined using a non-linear regression to fit the dose-response curve with OriginPro 9G (OriginLab, USA). Pre-tests as well as IC50 determination was carried out at least twice in duplicates.

Regarding `N#CSc1cc(SC#N)c(N)nc1N` [PR-619, reference compound], the IC50 came out at 2.7 ± 0.2 µM.

Turning to `N#CSc1cccc(NC(=O)[C@H]2CC=CC[C@H]2C(=O)O)c1` [S1th 10], the IC50 amounted to 23 ± 6 µM. Against the preceding compound, the IC50 is about 8.5-fold higher. The figure for `CCCCNC(=O)Nc1cccc(SC#N)c1` [S1th 11] is 6.3 ± 0.8 µM. With `COc1ccc(SC#N)cc1OCC(=O)N(CCC#N)CCC#N` [S1th 12] the figure was 5.9 ± 1.4 µM; with `N#CSc1cccc(NS(=O)(=O)c2ccc3c(c2)OCCO3)c1` [S1th 13], 5.2 ± 1 µM.

For the origin of these results see PMC7203344, “Sirtuin 1 Inhibiting Thiocyanates (S1th)—A New Class of Isotype Selective Inhibitors of NAD^+ Dependent Lysine Deacetylases” (Frontiers in Oncology, 2020).
